The IC50 is the point on the concentration scale where inhibition reaches its midpoint.

Each structure is given as a SMILES string.

One data set concerns the target T1, Papain (Carica papaya, UniProt P00784).
T1 sequence (P00784 whole entry): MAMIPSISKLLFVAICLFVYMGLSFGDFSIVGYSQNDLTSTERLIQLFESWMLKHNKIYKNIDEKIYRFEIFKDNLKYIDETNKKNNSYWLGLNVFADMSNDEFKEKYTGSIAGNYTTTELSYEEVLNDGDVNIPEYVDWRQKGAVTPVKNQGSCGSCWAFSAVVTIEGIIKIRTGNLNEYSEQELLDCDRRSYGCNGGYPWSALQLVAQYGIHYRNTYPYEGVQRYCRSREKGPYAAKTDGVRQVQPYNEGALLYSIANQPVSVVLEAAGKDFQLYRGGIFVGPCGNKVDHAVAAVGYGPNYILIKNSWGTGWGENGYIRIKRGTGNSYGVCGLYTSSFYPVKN
Briefly: Inhibition of papaya papain using Z-Leu-Leu-Arg-AMC as substrate measured for 30 mins by fluorescence assay.

A short description of data set [1]: Inhibition of Plasmodium falciparum falcipain-2 using Z-Leu-Arg-AMC as substrate after 10 mins by spectrofluorometric analysis.
A further data set has as its system Plasmodium falciparum. Briefly: Antiplasmodial activity against chloroquine-resistant ring stage of Plasmodium falciparum W2 infected in human RBC after 48 hrs by flow cytometric analysis. It is filed as functional, organism-based. The conditions noted are these: W2, 48 h. (In general: In flow cytometry, cells or beads pass a laser one at a time.)
Data set [2] can be described thus: Cytotoxicity against mouse NIH/3T3 cells assessed as inhibition of cell viability after 48 hrs by MTT assay. In kind it is cell-based. The following applies: NIH3T3, 48 h. For orientation: Tetrazolium assays rely on reduction of a dye to a coloured formazan, in cell work by metabolically active cells.
Another data set has as its system HEK-293T. The experiment in a line: Cytotoxicity against HEK293T cells assessed as inhibition of cell viability after 48 hrs by MTT assay. In kind it is cell-based. The following applies: Homo sapiens.
Data set [3] in a line: Selectivity index, ratio of IC50 for HEK293T cells to IC50 for chloroquine-resistant ring stage of Plasmodium falciparum W2. It is filed as toxicity, cell-based, HEK-293T. The following applies: human; read-out: Ratio IC50.

Consider `COc1cccc(Nc2c(Nc3cccc(OC)c3)c(=O)c2=O)c1`, for which the IC50 is greater than 5 µM on Papain, greater than 50 µM in data set [1] and greater than 10 µM in the data set with Plasmodium falciparum.

As for `CCN(CC)CCCNc1c(NCCCN(CC)CC)c(=O)c1=O`, the values for the IC50 (at Papain; in data set [1]; in the data set with Plasmodium falciparum) were greater than 10 µM, greater than 50 µM and greater than 10 µM, respectively.

Take `COc1c(Nc2ccc(N3CCCCC3)cc2)c(=O)c1=O`: the IC50 at Papain and in the data set with Plasmodium falciparum was greater than 10 µM in each case.

With `COc1c(Nc2ccc(C(C)(C)C)cc2)c(=O)c1=O`, the half-inhibitory concentration (IC50) on Papain and with Plasmodium falciparum was greater than 10 µM throughout.

As for `COc1c(Nc2ccc(Cl)cc2)c(=O)c1=O`, the concentration for half-maximal inhibition (IC50) on Papain and in the data set on Plasmodium falciparum was greater than 10 µM throughout.

Turning to `COc1ccc(Nc2c(OC)c(=O)c2=O)cc1`, the IC50 at Papain and with Plasmodium falciparum was greater than 10 µM each time.

On to `COc1c(Nc2cccnc2)c(=O)c1=O`, for which the IC50 on Papain and in the data set with Plasmodium falciparum was greater than 10 µM throughout.

For the compound `COc1c(NC(CO)Cc2ccccc2)c(=O)c1=O` (configuration not stated), the results for the 50% inhibitory concentration (IC50) (on Papain; in data set [1]; in the data set with Plasmodium falciparum) were greater than 10 µM, greater than 50 µM and greater than 10 µM, respectively.

As to `CCCCOc1c(Nc2ccc(N3CCCCC3)cc2)c(=O)c1=O`, the IC50 on Papain was greater than 10 µM; in the data set on Plasmodium falciparum it was 3.13 µM; in data set [2], greater than 100 µM; with HEK-293T it was greater than 100 µM. Further, the selectivity ratio in data set [3] was greater than 32.

As for `CCCCOc1c(Nc2ccc(C(C)(C)C)cc2)c(=O)c1=O`, the 50% inhibitory concentration (IC50) at Papain is greater than 10 µM; in data set [1], greater than 50 µM; in the data set on Plasmodium falciparum, 2.65 µM; in data set [2], 17.5 µM; in the data set with HEK-293T it was 12.3 µM. For the same compound, the selectivity ratio in data set [3] amounted to 4.7.

On to `O=c1c(Nc2ccc(N3CCCCC3)cc2)c(Nc2ccc(N3CCCCC3)cc2)c1=O`, for which the IC50 on Papain is 2.8 µM; in data set [1] it was greater than 50 µM; with Plasmodium falciparum, 4.16 µM; in data set [2] it was greater than 50 µM; in the data set on HEK-293T, greater than 50 µM. In data set [3], the selectivity ratio is greater than 12.

Turning to `CC(C)(C)c1ccc(Nc2c(Nc3ccc(C(C)(C)C)cc3)c(=O)c2=O)cc1`, the IC50 on Papain is 8.1 µM; in data set [1] it was 24.3 µM; in the data set with Plasmodium falciparum, 0.99 µM; in data set [2] it was greater than 100 µM; with HEK-293T, greater than 100 µM. Further, the selectivity ratio in data set [3] is greater than 101.

For `O=c1c(Nc2cccnc2)c(Nc2cccnc2)c1=O`, the IC50 against Papain and in the data set on Plasmodium falciparum was greater than 10 µM throughout.

With `O=c1c(NC(CO)Cc2ccccc2)c(NC(CO)Cc2ccccc2)c1=O` (configuration not stated), the IC50 at Papain and with Plasmodium falciparum was greater than 10 µM in each case.

In the case of `CN(C)CCNc1c(NCCN(C)C)c(=O)c1=O`, the IC50 on Papain and with Plasmodium falciparum was greater than 10 µM throughout.

For `CCN(CC)CCNc1c(NCCN(CC)CC)c(=O)c1=O`, the values for the IC50 (at Papain; in data set [1]; in the data set on Plasmodium falciparum) were greater than 10 µM, greater than 50 µM and greater than 10 µM, respectively.

On to `CN(C)CCCNc1c(NCCCN(C)C)c(=O)c1=O`, for which the IC50 against Papain and in the data set with Plasmodium falciparum was greater than 10 µM in each case.

In the case of `CC(C)NCCCNc1c(NCCCNC(C)C)c(=O)c1=O`, the values for the IC50 (against Papain; in data set [1]; with Plasmodium falciparum) were greater than 10 µM, greater than 50 µM and greater than 10 µM, respectively.

As to `CN(C)CC(C)(C)CNc1c(NCC(C)(C)CN(C)C)c(=O)c1=O`, the concentration for half-maximal inhibition (IC50) against Papain and in the data set with Plasmodium falciparum was greater than 10 µM throughout.

On to `CCN(CC)CCCC(C)Nc1c(NC(C)CCCN(CC)CC)c(=O)c1=O` (configuration not stated), for which the IC50 against Papain and in the data set with Plasmodium falciparum was greater than 10 µM each time.

Turning to `CCCCNc1c(NCCCC)c(=O)c1=O`, the concentration for half-maximal inhibition (IC50) at Papain and in the data set on Plasmodium falciparum was greater than 10 µM each time.

Turning to `CC(Nc1c(NC(C)c2ccccc2)c(=O)c1=O)c1ccccc1` (configuration not stated), the IC50 against Papain and in the data set with Plasmodium falciparum was greater than 10 µM in each case.

With `O=c1c(NC2CCCCC2)c(NC2CCCCC2)c1=O`, the half-maximal inhibitory concentration (IC50) at Papain and with Plasmodium falciparum was greater than 10 µM in each case.

Take `COc1c(NNC(=O)[C@H](CC(C)C)NC(=O)OC(C)(C)C)c(=O)c1=O`: the 50% inhibitory concentration (IC50) is greater than 10 µM against Papain, 8.53 µM in the data set on Plasmodium falciparum, greater than 100 µM in data set [2] and greater than 100 µM in the data set with HEK-293T. Also, the selectivity ratio in data set [3] was greater than 12.

On to `COc1c(N(Cc2ccccc2)NC(=O)[C@H](CC(C)C)NC(=O)OC(C)(C)C)c(=O)c1=O`, for which the results for the IC50 against Papain and with Plasmodium falciparum were greater than 10 µM and greater than 1 µM, respectively.

Consider `COc1c(N(CCc2ccccc2)NC(=O)[C@H](CC(C)C)NC(=O)OC(C)(C)C)c(=O)c1=O`, for which the IC50 was greater than 10 µM against Papain, 6.36 µM in the data set with Plasmodium falciparum, greater than 100 µM in data set [2] and greater than 100 µM in the data set on HEK-293T. Moreover, in data set [3], the selectivity ratio is greater than 16.

As to `COc1c(NNC(=O)[C@H](CC(C)C)NC(=O)N2CCOCC2)c(=O)c1=O`, the half-inhibitory concentration (IC50) against Papain and with Plasmodium falciparum was greater than 10 µM in each case.

Consider `COc1c(N(CCc2ccccc2)NC(=O)[C@H](CC(C)C)NC(=O)N2CCOCC2)c(=O)c1=O`, for which the 50% inhibitory concentration (IC50) against Papain and in the data set on Plasmodium falciparum was greater than 10 µM each time.

Take `COc1c(N(CCc2ccccc2)NC(=O)[C@H](CC(C)C)NC(=O)OCc2ccccc2)c(=O)c1=O`: the IC50 is greater than 10 µM on Papain, 2.99 µM in the data set on Plasmodium falciparum, greater than 100 µM in data set [2] and greater than 100 µM with HEK-293T. The selectivity ratio in data set [3] is greater than 33.

With `COc1c(N(CCc2ccccc2)NC(=O)CNC(=O)OCc2ccccc2)c(=O)c1=O`, the concentration for half-maximal inhibition (IC50) on Papain was greater than 10 µM; with Plasmodium falciparum it was 9.36 µM; in data set [2] it was greater than 100 µM; with HEK-293T it was greater than 100 µM. The selectivity ratio in data set [3] is greater than 11.

With `COc1c(N(CCc2ccccc2)NC(=O)[C@H](Cc2ccccc2)NC(=O)OCc2ccccc2)c(=O)c1=O`, the half-maximal inhibitory concentration (IC50) is greater than 10 µM against Papain, 3.14 µM with Plasmodium falciparum, greater than 100 µM in data set [2] and greater than 100 µM in the data set on HEK-293T. For the same compound, in data set [3], the selectivity ratio is greater than 32.

As to `CCCCOc1c(NNC(=O)[C@H](CC(C)C)NC(=O)OC(C)(C)C)c(=O)c1=O`, the half-inhibitory concentration (IC50) against Papain and in the data set with Plasmodium falciparum was greater than 10 µM in each case.

For the compound `CCCCOc1c(N(CCc2ccccc2)NC(=O)[C@H](CC(C)C)NC(=O)OC(C)(C)C)c(=O)c1=O`, the concentration for half-maximal inhibition (IC50) at Papain and with Plasmodium falciparum was greater than 10 µM throughout.

For `CCCCOc1c(NNC(=O)[C@H](CC(C)C)NC(=O)N2CCOCC2)c(=O)c1=O`, the 50% inhibitory concentration (IC50) was greater than 10 µM at Papain, 9.45 µM with Plasmodium falciparum, greater than 100 µM in data set [2] and greater than 100 µM with HEK-293T. Moreover, the selectivity ratio in data set [3] is greater than 11.

As to `CCCCOc1c(N(CCc2ccccc2)NC(=O)[C@H](CC(C)C)NC(=O)N2CCOCC2)c(=O)c1=O`, the 50% inhibitory concentration (IC50) at Papain and with Plasmodium falciparum was greater than 10 µM in each case.

Turning to `CCCCOc1c(N(CCc2ccccc2)NC(=O)[C@H](CC(C)C)NC(=O)OCc2ccccc2)c(=O)c1=O`, the IC50 was greater than 10 µM on Papain, 4.51 µM in the data set on Plasmodium falciparum, greater than 100 µM in data set [2] and greater than 100 µM in the data set with HEK-293T. The selectivity ratio in data set [3] is greater than 22.

For `CCCCOc1c(N(CCc2ccccc2)NC(=O)CNC(=O)OCc2ccccc2)c(=O)c1=O`, the half-maximal inhibitory concentration (IC50) was greater than 10 µM on Papain, 5.17 µM in the data set with Plasmodium falciparum, greater than 100 µM in data set [2] and greater than 100 µM in the data set on HEK-293T. Besides, in data set [3], the selectivity ratio is greater than 19.

With `CCCCOc1c(N(CCc2ccccc2)NC(=O)[C@H](Cc2ccccc2)NC(=O)OCc2ccccc2)c(=O)c1=O`, the concentration for half-maximal inhibition (IC50) is greater than 10 µM against Papain, 4.69 µM with Plasmodium falciparum, greater than 100 µM in data set [2] and greater than 100 µM in the data set with HEK-293T. Also, the selectivity ratio in data set [3] was greater than 21.

For `CC(C)C[C@H](Nc1c(Nc2ccc(C(C)(C)C)cc2)c(=O)c1=O)C(=O)NN(Cc1ccccc1)C(=O)/C=C/S(=O)(=O)c1ccccc1`, the concentration for half-maximal inhibition (IC50) with Plasmodium falciparum is greater than 10 µM.

Take `CC(C)C[C@H](Nc1c(NC(CO)Cc2ccccc2)c(=O)c1=O)C(=O)NN(Cc1ccccc1)C(=O)/C=C/S(=O)(=O)c1ccccc1` (some centres not stated): the IC50 with Plasmodium falciparum is greater than 10 µM.

Turning to `CC(C)C[C@H](NC(=O)[C@H]1O[C@@H]1C(=O)O)C(=O)NCCCCN=C(N)N` [E-64], the IC50 against Papain was 0.12 µM; in data set [1], 0.06 µM.

The record behind these values is ChEMBL document CHEMBL3217701, “Squaric acid: a valuable scaffold for developing antimalarials?” (Medchemcomm, 2012).
